# Results published in patent US5219741A, “Method of making L-proline using an N-acyl-L-protine acylase” (priority 1990, dated 1993).
# Test system: N-acyl-L-proline acylase
# Experiment: Substrate specificity: hydrolysis of N-acyl amino acids and proline derivatives
# Format: biochemical, Comamonas testosteroni DSM 5416
# Settings: not given
# Procedure: The activity of acylase was determined with various N-acetyl-L-amino acids and N-chloroacetyl-L-amino acids in a reaction batch with the following composition:
# The reaction temperature was 30° C. and the incubation time 15 minutes to 24 hours. 0.2 ml samples of the reaction batch in each instance were mixed at different times with 0.2 ml 10% (w/v) trichloroacetic acid and the denatured protein centrifuged off for 10 minutes at 11,000 rpms in a table centrifuge. The supernatant was diluted with a 0.1M Na citrate buffer pH 2.2 with 25% (v/v) 2.2-thiodiethanol and 0.1% (v/v) phenol 1:5 and 1:50 respectively. The amino acids released were quantitatively detected by an amino-acid analyzer LC 5001 of the firm Biotronic, Maintal, Federal Republic of Germany. In Table 16, the substrates marked with * and the corresponding products were quantified by means of HPLC.
# The activity of the acylase was determined with various proline derivatives as under a).
row,SMILES,Hydrolysis by the acylase (in words)
1,CC(=O)N1CCC[C@@H]1C(=O)O [N-acetyl-D-proline],not hydrolized

# Same assay, conditions: proline derivatives; 30° C., pH 7.0; N-acetyl-L-proline = 100%
row,SMILES,Relative Activity (%)
1,CC(=O)N1CCC[C@@H]1C(=O)O [N-acetyl-D-proline],0

# Test system: N-acyl-L-proline acylase
# Experiment: Stereospecificity of hydrolysis of N-acetyl-D,L-proline
# Format: biochemical, Comamonas testosteroni DSM 5416
# Settings: not given
# Procedure: The hydrolysis of N-acyl-L-proline, N-acetyl-D,L-proline and N-acetyl-D-proline was determined in the following reaction mixture:
# The reaction mixture was incubated for two hours at 30° C. and the L-proline produced was determined by amino acid analysis as in Example 10.
row,SMILES,Stereospecific hydrolysis (in words)
1,CC(=O)N1CCC[C@@H]1C(=O)O [N-acetyl-D-proline],not

# Same assay, conditions: substrate 10 mmol/l; two hours at 30° C., pH 7.0
row,SMILES,L-proline (mmol/l) produced [mmol/L]
1,"CC(=O)N1CCCC1C(=O)O (racemic) [N-acetyl-D,L-proline]",4.82
2,CC(=O)N1CCC[C@@H]1C(=O)O [N-acetyl-D-proline],< 0.01

# Test system: 1,10-phenanthroline-inactivated acylase (apoenzyme)
# Experiment: Influence of cations on the 1,10-phenanthroline-inactivated acylase
# Format: biochemical, Comamonas testosteroni DSM 5416
# Settings: 1,10-phenanthroline-inactivated acylase
# Procedure: FPLC/Mono Q purified enzyme was incubated for 24 hours at 4° C. in the presence of 1 mM 1,10-phenanthroline. Subsequently, enzyme and the chelating agent 1,10-phenanthroline were separated by gel filtration via Sephadex G-25M (PD-10, firm Pharmacia/LKB, Uppsala, Sweden). The enzyme-containing fractions were combined and the activity determined without and in the presence of various cations (1 mM).
row,SMILES,Influence on the apoenzyme (in words)
1,O=S(=O)([O-])[O-].[Cu+2] [CuSO4],inhibited
2,[Cl][Hg][Cl] [HgCl2],inhibited
3,[Cl][Sn][Cl] [SnCl2],inhibited
4,O=S(=O)([O-])[O-].[Zn+2] [ZnSO4],activating action

# Same assay, conditions: inactivated enzyme after gel filtration + cation 1 mM; native enzyme = 100, no agent = 21
row,SMILES,Activity (%)
1,O=S(=O)([O-])[O-].[Cu+2] [CuSO4],6
2,[Cl][Fe]([Cl])[Cl] [FeCl3],5
3,O=S(=O)([O-])[O-].[Fe+2] [FeSO4],12
4,[Cl][Hg][Cl] [HgCl2],6
5,[Cl-].[Cl-].[Mg+2] [MgCl2],25
6,[Cl][Mn][Cl] [MnCl2],23
7,O=[N+]([O-])[O-].O=[N+]([O-])[O-].[Ni+2] [Ni(NO3)2],21
8,[Cl][Sn][Cl] [SnCl2],10
9,[Cl-].[Cl-].[Sr+2] [SrCl2],23
10,O=S(=O)([O-])[O-].[Zn+2] [ZnSO4],54

# Test system: N-acyl-L-proline acylase
# Experiment: not given
# Format: biochemical, Comamonas testosteroni DSM 5416
# Settings: metal cation salt 1 mM; native enzyme; no agent = 100
# Procedure: The enzymatic reaction was interrupted by pipetting 50 μl of the enzyme sample into 1.25 ml 100% acetic acid. Subsequently, 0.45 ml 0.1M tris-HCl buffer pH 7.0 and 1.25 ml ninhydrin reagent (3 g ninhydrin dissolved by heating in a mixture of 60 ml 100% acetic acid and 40 ml 6M phosphoric acid) were added. The ninhydrin reagent was freshly prepared daily. The test tubes were loosely closed with screw-on caps, incubated 30 minutes at 100° C. and subsequently cooled down in an ice bath.
# The L-proline, liberated by the enzymatic hydrolysis, forms a red dye with ninhydrin at 100° C. The absorption of the red dye was measured in a spectrophotometer at 480 nm relative to a control batch without crude extract (=substrate blank). The concentration of the L-proline produced was determined using a straight calibration line with L-proline in a range of 5 to 100 nmoles per 50 μl specimen. The enzyme activity was indicated in international units; thus, one unit (U) corresponded to an amount of 1 μmole L-proline produced per minute.
# The influence of various chemical agents as well as metal cations and anions on the reaction speed of the hydrolytic splitting of N-acetyl-L-proline was determined at 30° C. in a reaction batch with the following composition: […]
# The enzyme was pre-incubated for 10 minutes at 30° C. with the compound before the addition of substrate to start the reaction.
# The enzyme was pre-incubated for 10 minutes at 30° C. with the agent before the substrate was added to start the reaction.
# The enzyme was pre-incubated 10 minutes at 30° C. with the agent before the substrate was added to start the reaction. The concentration of the anions was 10 mM in each instance.
row,SMILES,Activity (%)
1,O=S(=O)([O-])[O-].[Cu+2] [CuSO4],61
2,[Cl][Fe]([Cl])[Cl] [FeCl3],83
3,O=S(=O)([O-])[O-].[Fe+2] [FeSO4],20
4,[Cl][Hg][Cl] [HgCl2],67
5,[Cl-].[Cl-].[Mg+2] [MgCl2],106
6,[Cl][Mn][Cl] [MnCl2],104
7,O=[N+]([O-])[O-].O=[N+]([O-])[O-].[Ni+2] [Ni(NO3)2],94
8,[Cl][Sn][Cl] [SnCl2],72
9,[Cl-].[Cl-].[Sr+2] [SrCl2],104
10,O=S(=O)([O-])[O-].[Zn+2] [ZnSO4],77

# Same assay, conditions: metal cation salt 10 mM; native enzyme; no agent = 100
row,SMILES,Activity (%)
1,O=S(=O)([O-])[O-].[Cu+2] [CuSO4],19
2,[Cl][Fe]([Cl])[Cl] [FeCl3],58
3,[Cl][Hg][Cl] [HgCl2],9
4,[Cl-].[Cl-].[Mg+2] [MgCl2],99
5,[Cl][Mn][Cl] [MnCl2],103
6,O=[N+]([O-])[O-].O=[N+]([O-])[O-].[Ni+2] [Ni(NO3)2],75
7,[Cl][Sn][Cl] [SnCl2],55
8,[Cl-].[Cl-].[Sr+2] [SrCl2],100
9,O=S(=O)([O-])[O-].[Zn+2] [ZnSO4],32

# Same assay, conditions: native enzyme
row,SMILES,Influence on the acylase activity (in words)
1,O=S(=O)([O-])[O-].[Cu+2] [CuSO4],inhibiting action
2,[Cl][Hg][Cl] [HgCl2],inhibiting action
3,[Cl][Sn][Cl] [SnCl2],inhibiting action
4,O=S(=O)([O-])[O-].[Zn+2] [ZnSO4],inhibiting action
